According to PubChem BioAssay (NCI):
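A five-concentration, 48-hour dose response in 96-well plates underlies each endpoint, interpolated linearly between surrounding concentrations. TGI denotes the concentration required for complete inhibition of growth.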

Key:
Test in all cases: inhibition of tumour cell growth, NCI panel, 48 h
DU-145 prostate = test system: DU-145 prostate
EKVX NSCLC = test system: EKVX NSCLC
HCC-2998 colon = test system: HCC-2998 colon
HL-60(TB) leukemia = test system: HL-60(TB) leukemia
HS 578T breast = test system: HS 578T breast
KM12 colon = test system: KM12 colon
MOLT-4 leukemia = test system: MOLT-4 leukemia
OVCAR-3 ovarian = test system: OVCAR-3 ovarian
PC-3 prostate = test system: PC-3 prostate
SNB-19 CNS = test system: SNB-19 CNS
SR leukemia = test system: SR leukemia

SMILES | TGI (DU-145 prostate) [µM] | TGI (EKVX NSCLC) [µM] | TGI (HCC-2998 colon) [µM] | TGI (HL-60(TB) leukemia) [µM] | TGI (HS 578T breast) [µM] | TGI (KM12 colon) [µM] | TGI (MOLT-4 leukemia) [µM] | TGI (OVCAR-3 ovarian) [µM] | TGI (PC-3 prostate) [µM] | TGI (SNB-19 CNS) [µM] | TGI (SR leukemia) [µM]
O=C(CCN1CCCC1)c1ccc(Oc2ccc(F)cc2)cc1 | > 100 | > 100 | > 100 | 37.8 | > 100 | 90.9 | 43.3 | > 100 | > 100 | > 100 | –
CCOC(=O)c1ccc(N(CCOS(=O)(=O)c2ccc(C)cc2)CCOS(=O)(=O)c2ccc(C)cc2)cc1 | – | > 100 | > 100 | – | > 100 | > 100 | > 100 | > 100 | 75 | > 100 | –
CC1=NNC(=O)C1C1C=C(c2c[nH]c3ccccc23)OC1=O (configuration not stated) | > 100 | > 100 | – | > 100 | > 100 | > 100 | > 100 | > 100 | > 100 | > 100 | –
CC(=O)OCC1=CC2CCC3C(C)(CCC[C@]3(C)COC(C)=O)C23CC[C@H]1C3 (some centres not stated) | – | > 100 | 86.3 | 53.6 | – | > 100 | 51.5 | > 100 | – | > 100 | 76.5
CCOc1nc2sc3c(c2c(=O)n1CCSSCCn1c(OCC)nc2sc4c(c2c1=O)CCCC4)CCCC3 | > 100 | > 100 | > 100 | – | > 100 | > 100 | > 100 | > 100 | > 100 | > 100 | > 100
CC(C)(C)NC(=S)N/N=C/c1ccccn1 | > 100 | > 100 | > 100 | – | > 100 | > 100 | – | > 100 | > 100 | > 100 | –
CCOC(=O)c1ccn2c(c1)c(C#N)c1nc3ccccc3nc12 | – | > 100 | > 100 | > 100 | – | > 100 | 50.6 | > 100 | – | > 100 | > 100
CC(C)=CCOc1ccc(-c2coc3cc4c(c(O)c3c2=O)C=CC(C)(C)O4)cc1 | – | > 100 | > 100 | > 100 | – | > 100 | > 100 | > 100 | – | > 100 | > 100
Oc1ccc(/C=N/c2nccs2)c(O)c1 | > 100 | > 100 | > 100 | – | > 100 | > 100 | – | > 100 | > 100 | > 100 | –
Cc1ccc(O)c(C2=NNC(c3cccc(Cl)c3)C2)c1 (configuration not stated) | > 100 | > 100 | – | > 100 | 86.3 | > 100 | > 100 | > 100 | > 100 | 55.8 | > 100
Cn1c(=O)[nH]c2c(c1=O)C(=O)CN2 | – | > 100 | > 100 | > 100 | – | > 100 | > 100 | – | – | > 100 | > 100
COC(=O)C(=O)C(C(C)=O)C(=O)C(=O)Nc1ccc(C)cc1C (configuration not stated) | – | > 100 | > 100 | > 100 | – | > 100 | > 100 | – | – | > 100 | > 100
COC1(C)CNCC(C)(C)NC(=O)C(C)(OC)CNCC(C)(C)NC1=O (configuration not stated) | – | > 100 | > 100 | > 100 | – | > 100 | > 100 | > 100 | – | > 100 | –
COc1nc2c(c(=O)[nH]1)N=C(c1ccc(Cl)cc1)CC(c1ccccc1)N2 (configuration not stated) | > 100 | > 100 | > 100 | – | – | > 100 | > 100 | > 100 | > 100 | > 100 | > 100
COC(=O)CNC(=O)CSc1nnc(COc2ccc(Cl)cc2)n1-c1ccccc1 | 33.6 | > 100 | 59.1 | > 100 | – | > 100 | > 100 | > 100 | 51.2 | > 100 | –
CCCCCC(/C=C/c1ncccc1OCCCCCC(=O)O)=N\NC1=NCCN1 | – | > 100 | > 100 | > 100 | – | > 100 | > 100 | > 100 | – | > 100 | > 100
CCN1C/C(=C\c2ccc(Cl)cc2)c2[nH]c(=O)c(C#N)c(-c3ccc(Cl)cc3)c2C1 | > 100 | > 100 | > 100 | > 100 | – | > 100 | > 100 | > 100 | > 100 | > 100 | > 100
COC(=O)[C@@H]1[C@H]2CC[C@]3(C)[C@@H](OC(C)=O)CC[C@H]3[C@@H]2CC[C@H]1C(C)=O | > 100 | > 100 | > 100 | > 100 | > 100 | > 100 | > 100 | > 100 | > 100 | > 100 | –
C[Si](C)(C)/C=C/CN1C(=O)CCC1=O | – | > 100 | > 100 | > 100 | – | > 100 | – | > 100 | – | > 100 | > 100
CC1N=C(c2ccccc2)OC1=O (configuration not stated) | > 100 | > 100 | – | – | > 100 | > 100 | > 100 | > 100 | > 100 | > 100 | –
CC(=O)c1cccc(Nc2nc3ccccc3c3[nH]c4ccccc4c23)c1 | > 100 | 21.4 | – | – | > 100 | > 100 | – | 6.56 | 40.9 | > 100 | –
CC(=O)OCC1OC(n2c(O)c(N=NC(N)=S)c3ccc([N+](=O)[O-])cc32)C(OC(C)=O)C1OC(C)=O (configuration not stated) | – | > 100 | 65.6 | 62.7 | – | > 100 | 54.9 | 63.9 | – | > 100 | 60.2
COc1cc2c(cc1O)C(=O)O[C@@H]1CC=C3CCN(C)[C@H]3[C@H]21 | > 25 | > 25 | > 25 | – | > 25 | > 25 | > 25 | > 25 | > 25 | > 25 | > 25
C/C(=C\CC/C=C(\C)CC/C=C(\C)CCC1SC1(C)C)CC/C=C(\C)CCC1OC1(C)C (configuration not stated) | – | > 100 | > 100 | > 100 | – | > 100 | > 100 | > 100 | – | > 100 | > 100
